Source: patent US20230181745A1, “ZINC COMPLEXES AND THEIR USES” (Demuris Limited, priority 2020, published 2023)

Tests used:
[1] = target: forkhead transcription factor, Foxo3a (Homo sapiens, UniProt O43524); details: published by Kawahara et al., 2015; cited from earlier work
[2] = system: Schizosaccharomyces pombe; assay: Filter disc assay on a lawn of S. pombe; format: cell-based; details: for bioactivity against S. pombe (haloes/zones of inhibition), relative: zinc complexed versus zinc-free form, tested in parallel
Protocol: The silica powder with the S149 compound adsorbed onto it was divided into two equal portions of ˜7.5 g and each portion was used in normal phase “flash” chromatography using a Biotage™ Isolera™ machine and a Biotage™ KP-Sil 50 g column. A chloroform-methanol gradient was used to elute the bound material from the silica in which the percentage of methanol went from 0%-100%. No formic acid was added to the solvents as this degrades the bioactive compound. The eluate from the column was fractionated and the presence of the bioactive compound (S149) determined using the “Filter disc assay” method as described in the “Materials and Methods” of Lewis et al., 2017. The active fractions eluted from the two normal phase chromatography columns were pooled, and after removal of the solvent using a GeneVac™ Series U system equipped with a GeneVac™ VC3000TA condenser unit, the dried material was resuspended in 5 ml of methanol which was loaded onto a size exclusion column. The column was run at a flow rate of 1 ml/min with 1,200 ml of methanol and the eluate fractionated. The bioactive fractions, as determined using the “Filter disc assay” method as described in the “Materials and Methods” of Lewis et al., 2017, were pooled to give ˜15 ml of material which was diluted with 60 ml of water to give 75 ml of a 20% methanol solution. This was used in reverse phase chromatography using a Biotage™ Isolera™ chromatography machine in which the bioactive material was loaded by injection onto a C18 SNAP Ultra 12 g Biotage™ column and eluted using an acetonitrile-water gradient where the percentage of acetonitrile was increased from 20%-100%.
An example of the u.v. absorbance pattern (λ=254 nm) is shown in FIG. 1 and indicates the presence of four peaks labelled 0-3. An integrated fraction collector was used to peak-pick material and collect column eluate corresponding to the peaks which were then bioassayed using the “Filter disc assay” method as described in the “Materials and Methods” of Lewis el al., 2017.

forkhead transcription factor, Foxo3a, sequence (O43524 whole entry): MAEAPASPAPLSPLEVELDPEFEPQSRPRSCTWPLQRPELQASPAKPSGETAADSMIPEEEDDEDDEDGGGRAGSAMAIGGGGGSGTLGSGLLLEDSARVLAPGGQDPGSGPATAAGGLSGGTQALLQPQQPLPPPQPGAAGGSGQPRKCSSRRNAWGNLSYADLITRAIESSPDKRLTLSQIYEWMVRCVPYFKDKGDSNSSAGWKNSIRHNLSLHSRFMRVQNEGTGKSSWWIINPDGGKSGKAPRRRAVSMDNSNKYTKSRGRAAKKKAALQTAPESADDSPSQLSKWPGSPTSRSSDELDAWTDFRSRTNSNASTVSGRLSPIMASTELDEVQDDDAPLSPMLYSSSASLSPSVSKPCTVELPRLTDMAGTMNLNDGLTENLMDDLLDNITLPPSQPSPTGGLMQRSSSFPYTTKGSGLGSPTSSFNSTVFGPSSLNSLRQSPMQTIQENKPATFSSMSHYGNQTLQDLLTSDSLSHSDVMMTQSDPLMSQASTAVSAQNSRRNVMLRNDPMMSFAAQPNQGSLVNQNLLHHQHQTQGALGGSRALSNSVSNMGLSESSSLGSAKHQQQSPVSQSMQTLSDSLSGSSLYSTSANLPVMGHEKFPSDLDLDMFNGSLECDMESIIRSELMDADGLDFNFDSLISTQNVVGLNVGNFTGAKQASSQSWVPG

SMILES | inhibition of the transcriptional activity of Foxo3a [1] | time for haloes in the S. pombe lawn around impregnated discs to develop ([2]; filter discs impregnated with HPLC peak material) [h] | bioactivity against S. pombe (haloes/zones of inhibition), relative [2] | bioactivity against S. pombe (haloes/zones of inhibition), relative ([2]; listed as JBIR 141) | bioactivity against S. pombe (haloes/zones of inhibition), relative ([2]; listed as Peak 0)
CC(=O)O[C@@H]([C@H](CCCN(O)N=O)NC(=O)[C@H]1N=C([C@H](C)N(C)C)O[C@@H]1C)C(C)(C)C(=O)O[C@H](C(=O)C1=C(O)[C@H](C)N(C)C1=O)C(C)C [JBIR-141] | possess the ability to inhibit the transcriptional activity | ~48 | not as bioactive as the zinc complexed form | not as bioactive as the zinc complexed form | lower than the bioactivity of the material from the other peaks
CC(=O)O[C@@H]([C@H](C[C@@H](O)CN(O)N=O)NC(=O)[C@H]1N=C([C@H](C)N(C)C)O[C@@H]1C)C(C)(C)C(=O)O[C@H](C(=O)C1=C(O)[C@H](C)N(C)C1=O)C(C)C [JBIR-142] | possess the ability to inhibit the transcriptional activity |  |  |  | 
